Laboratory results from US7960376B2, “Benzo-fused heterocycles” (priority 2007, dated 2011).

Legend:
Format in all cases: cell-based
[1] = molecular target: human CB1 receptor (hCB1) (Homo sapiens, UniProt P21554); assay: cAMP assay (LANCE TR-FRET) in CHO-K1 cells expressing hCB1; details: intracellular cAMP, NKH-477 prestimulated, + agonist, − inverse agonist
[2] = molecular target: human CB2 receptor (hCB2) (Homo sapiens, UniProt P34972); assay: cell-based; details: intracellular cAMP, CHO-K1 cells, NKH-477 prestimulated; + agonist, − inverse agonist
Chain of human CB2 receptor (hCB2) (P34972 whole entry): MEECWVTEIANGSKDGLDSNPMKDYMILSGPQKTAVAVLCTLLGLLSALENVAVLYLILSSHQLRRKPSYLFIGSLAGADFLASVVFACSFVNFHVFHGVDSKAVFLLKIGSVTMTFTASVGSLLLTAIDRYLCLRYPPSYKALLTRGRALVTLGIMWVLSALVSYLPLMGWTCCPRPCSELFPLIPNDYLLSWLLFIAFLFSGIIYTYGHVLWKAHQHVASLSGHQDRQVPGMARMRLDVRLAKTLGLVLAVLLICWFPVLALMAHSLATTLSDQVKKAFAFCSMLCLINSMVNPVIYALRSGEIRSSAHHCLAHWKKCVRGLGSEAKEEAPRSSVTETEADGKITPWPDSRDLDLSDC

rat CB2 receptor (rCB2) = molecular target: T1, rat CB2 receptor (rCB2) (Rattus norvegicus, UniProt Q9QZN9); assay: cell-based; details: intracellular cAMP, CHO-K1 cells, NKH-477 prestimulated; + agonist, − inverse agonist
T1 sequence (Q9QZN9 1-360): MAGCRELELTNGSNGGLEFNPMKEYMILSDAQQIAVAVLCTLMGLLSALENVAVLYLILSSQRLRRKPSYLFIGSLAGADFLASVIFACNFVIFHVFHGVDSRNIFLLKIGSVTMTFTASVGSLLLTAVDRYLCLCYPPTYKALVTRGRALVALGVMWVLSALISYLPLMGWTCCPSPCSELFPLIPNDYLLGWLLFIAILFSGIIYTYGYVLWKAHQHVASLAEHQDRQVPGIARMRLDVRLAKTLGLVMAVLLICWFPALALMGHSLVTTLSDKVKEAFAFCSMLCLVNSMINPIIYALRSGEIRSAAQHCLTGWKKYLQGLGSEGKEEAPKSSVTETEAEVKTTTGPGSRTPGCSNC

Chain of human CB1 receptor (hCB1) (P21554 whole entry): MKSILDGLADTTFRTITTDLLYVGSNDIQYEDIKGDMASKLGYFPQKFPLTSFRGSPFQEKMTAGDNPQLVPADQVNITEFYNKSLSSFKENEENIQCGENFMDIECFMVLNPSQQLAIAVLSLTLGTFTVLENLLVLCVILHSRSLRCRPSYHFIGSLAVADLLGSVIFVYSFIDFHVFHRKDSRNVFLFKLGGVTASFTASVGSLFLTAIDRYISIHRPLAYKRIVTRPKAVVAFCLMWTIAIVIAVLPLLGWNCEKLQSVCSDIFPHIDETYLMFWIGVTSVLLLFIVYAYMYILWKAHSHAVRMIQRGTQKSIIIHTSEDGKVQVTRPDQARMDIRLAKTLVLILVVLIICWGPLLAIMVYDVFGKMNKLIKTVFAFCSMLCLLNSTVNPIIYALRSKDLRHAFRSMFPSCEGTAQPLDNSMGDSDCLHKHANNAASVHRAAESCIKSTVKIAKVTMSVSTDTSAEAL

Compound	hCB1 EC50 range [1]	hCB2 EC50 range [2]	rCB2 EC50 range (rat CB2 receptor (rCB2))
O=C(NC1CCCC1)c1ccc2c(c1)N(C(=O)c1ccccc1)CCS2 [Example 14, 4-benzoyl-N-cyclopentyl-3,4-dihydro-2H-benzo[b][1,4]thiazine-6-carboxamide]	−E	−E	−D
O=C(NC12CC3CC(CC(C3)C1)C2)c1ccc2c(c1)N(C(=O)c1ccccc1)CCS2 [Example 21, 4-benzoyl-N-(1-adamantyl)-3,4-dihydro-2H-benzo[b][1,4]thiazine-6-carboxamide]	−E	−E	−D
O=C(NC12CC3CC(CC(C3)C1)C2)c1ccc2c(c1)N(C(=O)c1ccc(F)cc1)CCS2 [Example 22]	−E	−E	−D
Cc1ccc(C(=O)N2CCSc3ccc(C(=O)NC45CC6CC(CC(C6)C4)C5)cc32)cc1 [Example 23, N-(1-adamantyl)-4-(4-methylbenzoyl)-3,4-dihydro-2H-benzo[b][1,4]thiazine-6-carboxamide]	−E	−E	−D
O=C(NC12CC3CC(CC(C3)C1)C2)c1ccc2c(c1)N(C(=O)c1ccc(Cl)cc1)CCS2 [Example 24, N-(1-adamantyl)-4-(4-chlorobenzoyl)-3,4-dihydro-2H-benzo[b][1,4]thiazine-6-carboxamide]	−E	−E	−D
COc1ccc(C(=O)N2CCSc3ccc(C(=O)NC45CC6CC(CC(C6)C4)C5)cc32)cc1 [Example 25, N-(1-adamantyl)-4-(4-methoxybenzoyl)-3,4-dihydro-2H-benzo[b][1,4]thiazine-6-carboxamide]	−E	−E	−D
CC(C)C(=O)N1CCSc2ccc(C(=O)NC34CC5CC(CC(C5)C3)C4)cc21 [Example 40, N-(1-adamantyl)-4-isobutyryl-3,4-dihydro-2H-benzo[b][1,4]thiazine-6-carboxamide]	−E	+D	−D
O=C(c1ccc2c(c1)N(S(=O)(=O)c1ccc(F)cc1)CCS2)N1CCOCC1 [Example 42, (4-(4-fluorophenylsulfonyl)-3,4-dihydro-2H-benzo[b][1,4]thiazin-6-yl)(morpholino)methanone]	+E	+D	+C
CC(C)CNC(=O)c1ccc2c(c1)N(S(=O)(=O)c1ccc(F)cc1)CCS2 [Example 43, 4-(4-fluorophenylsulfonyl)-N-isobutyl-3,4-dihydro-2H-benzo[b][1,4]thiazine-6-carboxamide]	+D	+B	+A
CC(C)(C)NC(=O)c1ccc2c(c1)N(S(=O)(=O)c1ccc(F)cc1)CCS2 [Example 47, N-tert-butyl-4-(4-fluorophenylsulfonyl)-3,4-dihydro-2H-benzo[b][1,4]thiazine-6-carboxamide]	+E	+B	+A
COCCCNC(=O)c1ccc2c(c1)N(S(=O)(=O)c1ccc(F)cc1)CCS2 [Example 49, 4-(4-fluorophenylsulfonyl)-N-(3-methoxypropyl)-3,4-dihydro-2H-benzo[b][1,4]thiazine-6-carboxamide]	+E	+C	+A
